Laboratory results: patent US20110082130A1 (LIGAND PHARMACEUTICALS, INC., priority 2006, published 2011)

Target: T1, chimeric human H3 receptor (Homo sapiens, UniProt Q9Y5N1)
T1 construct: made in house; host or cells: Sf9 insect cells (baculovirus); P2 membrane preparation
Assay: Chimeric human H3 receptor screening GTP binding assay (inhibition of histamine-stimulated GTP-gamma35S binding, Example 8)
Format: biochemical
Conditions: 4 μM of the compound, 1 μM histamine, "†" in Ki of Table II, read-out: percent inhibition of the signal obtained with 1 μM histamine
Procedure, shortened: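 Values are percent inhibition of 1 μM histamine-stimulated GTP-gamma35S […] binding, with non-specific binding (10 μM GTP-gammaS) subtracted, by compounds tested at 4 μM. Membranes (35 μg) from Sf9 cells expressing chimeric human H3 with G-protein subunits were used in Tris pH 7.4 buffer with 10 μM GDP. Incubation lasted 60 min at room temperature, followed by filtration and scintillation counting.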

T1 sequence (Q9Y5N1 with tags, fused parts or gaps): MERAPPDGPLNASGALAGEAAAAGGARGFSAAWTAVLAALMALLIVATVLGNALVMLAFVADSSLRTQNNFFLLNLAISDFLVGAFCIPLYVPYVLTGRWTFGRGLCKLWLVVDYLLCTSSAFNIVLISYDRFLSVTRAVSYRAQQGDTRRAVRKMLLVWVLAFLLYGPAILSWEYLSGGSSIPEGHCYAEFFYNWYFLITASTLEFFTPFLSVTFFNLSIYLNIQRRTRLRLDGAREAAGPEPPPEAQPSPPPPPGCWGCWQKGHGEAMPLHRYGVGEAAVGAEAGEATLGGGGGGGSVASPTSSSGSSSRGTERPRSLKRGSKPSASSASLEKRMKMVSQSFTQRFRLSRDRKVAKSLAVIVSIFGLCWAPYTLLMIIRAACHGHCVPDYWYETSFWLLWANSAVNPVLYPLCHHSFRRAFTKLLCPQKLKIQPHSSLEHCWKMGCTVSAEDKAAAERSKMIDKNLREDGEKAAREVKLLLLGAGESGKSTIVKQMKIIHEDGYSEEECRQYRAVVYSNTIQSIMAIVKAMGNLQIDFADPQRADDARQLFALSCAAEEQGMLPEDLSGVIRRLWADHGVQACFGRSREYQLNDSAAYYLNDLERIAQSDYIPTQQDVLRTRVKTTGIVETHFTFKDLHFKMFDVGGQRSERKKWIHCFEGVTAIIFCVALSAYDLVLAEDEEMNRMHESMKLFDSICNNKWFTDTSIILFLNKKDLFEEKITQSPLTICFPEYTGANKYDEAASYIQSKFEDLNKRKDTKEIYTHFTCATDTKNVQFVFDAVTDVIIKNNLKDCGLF

Inhibition at 4 µM, ≥ 90%:
Cc1ccc(-c2ccc3c(c2)CCN(CC(=O)N2CCN(C(C)C)CC2)C3)cc1C [Compound 450, 6-(3,4-dimethylphenyl)-2-[2-(4-isopropylpiperazin-1-yl)-2-oxoethyl]-1,2,3,4-tetrahydroisoquinoline]
Cc1ccc(F)c(-c2ccc3c(c2)CCN(CC(=O)N2CCN(C4CCC4)CC2)C3)c1 [Compound 423, 2-[2-(4-cyclobutylpiperazin-1-yl)-2-oxoethyl]-6-(2-fluoro-5-methylphenyl)-1,2,3,4-tetrahydroisoquinoline]
O=C(CN1CCc2cc(-c3ccccc3F)ccc2C1)N1CCN(C2CCC2)CC1 [Compound 414, 2-[2-(4-cyclobutylpiperazin-1-yl)-2-oxoethyl]-6-(2-fluorophenyl)-1,2,3,4-tetrahydroisoquinoline]
CCc1cccc(-c2ccc3c(c2)CCN(CC(=O)N2CCN(C(C)C)CC2)C3)c1 [Compound 470, 6-(3-ethylphenyl)-2-[2-(4-isopropylpiperazin-1-yl)-2-oxoethyl]-1,2,3,4-tetrahydroisoquinoline]
CC(C)(C)c1ccc(-c2ccc3c(c2)CCN(CC(=O)N2CCN(C4CCCC4)CC2)C3)cc1 [Compound 472, 6-(4-tert-butylphenyl)-2-[2-(4-cyclopentylpiperazin-1-yl)-2-oxoethyl]-1,2,3,4-tetrahydroisoquinoline]
O=C(CN1CCc2cc(-c3ccccc3)ccc2C1)N1CCN(C2CCC2)CC1 [Compound 398, 2-[2-(4-cyclobutylpiperazin-1-yl)-2-oxoethyl]-6-phenyl-1,2,3,4-tetrahydroisoquinoline]
O=C(CN1CCc2cc(-c3cccc4c3oc3ccccc34)ccc2C1)N1CCN(C2CCC2)CC1 [Compound 388, 2-[2-(4-cyclobutylpiperazin-1-yl)-2-oxoethyl]-6-dibenzo[b,d]furan-4-yl-1,2,3,4-tetrahydroisoquinoline]
CCCCc1ccc(-c2ccc3c(c2)CCN(CC(=O)N2CCN(C(C)C)CC2)C3)cc1 [Compound 454, 6-(4-butylphenyl)-2-[2-(4-isopropylpiperazin-1-yl)-2-oxoethyl]-1,2,3,4-tetrahydroisoquinoline]
CC(C)N1CCN(C(=O)CN2CCc3cc(-c4ccc5ccccc5c4)ccc3C2)CC1 [Compound 419, 2-[2-(4-isopropylpiperazin-1-yl)-2-oxoethyl]-6-(2-naphthyl)-1,2,3,4-tetrahydroisoquinoline]
CC(C)(C)c1ccc(-c2ccc3c(c2)CCN(CC(=O)N2CCN(C4CCC4)CC2)C3)cc1 [Compound 471, 6-(4-tert-butylphenyl)-2-[2-(4-cyclobutylpiperazin-1-yl)-2-oxoethyl]-1,2,3,4-tetrahydroisoquinoline]
CCc1cccc(-c2ccc3c(c2)CCN(CC(=O)N2CCN(C4CCCCC4)CC2)C3)c1 [Compound 469, 2-[2-(4-cyclohexylpiperazin-1-yl)-2-oxoethyl]-6-(3-ethylphenyl)-1,2,3,4-tetrahydroisoquinoline]
CC(C)c1cccc(-c2ccc3c(c2)CCN(CC(=O)N2CCN(C4CCCCC4)CC2)C3)c1 [Compound 441, 2-[2-(4-cyclohexylpiperazin-1-yl)-2-oxoethyl]-6-(3-isopropylphenyl)-1,2,3,4-tetrahydroisoquinoline]
CCc1ccc(-c2ccc3c(c2)CCN(CC(=O)N2CCN(C4CCC4)CC2)C3)cc1 [Compound 459, 2-[2-(4-cyclobutylpiperazin-1-yl)-2-oxoethyl]-6-(4-ethylphenyl)-1,2,3,4-tetrahydroisoquinoline]
CC(C)N1CCN(C(=O)CN2CCc3cc(-c4ccc(OC(F)(F)F)cc4)ccc3C2)CC1 [Compound 481, 2-[2-(4-isopropylpiperazin-1-yl)-2-oxoethyl]-6-[4-(trifluoromethoxy)phenyl]-1,2,3,4-tetrahydroisoquinoline]
CCc1cccc(-c2ccc3c(c2)CCN(CC(=O)N2CCN(C4CCCC4)CC2)C3)c1 [Compound 468, 2-[2-(4-cyclopentylpiperazin-1-yl)-2-oxoethyl]-6-(3-ethylphenyl)-1,2,3,4-tetrahydroisoquinoline]

Same assay, conditions: Table II "Ki", symbol †, 4 μM of the compound, 1 μM histamine, read-out: percent inhibition of the signal obtained with 1 μM histamine

Inhibition at 4 µM, ≥ 90%:
CN(C)c1cccc(-c2ccc3c(c2)CCN(CC(=O)N2CCN(C4CCCC4)CC2)C3)c1 [Compound 537, 3-{2-[2-(4-cyclopentylpiperazin-1-yl)-2-oxoethyl]-1,2,3,4-tetrahydroisoquinolin-6-yl}-N,N-dimethylaniline]
COc1ccc(C)cc1-c1ccc2c(c1)CCN(CC(=O)N1CCN(C3CCCCC3)CC1)C2 [Compound 574, 2-[2-(4-cyclohexylpiperazin-1-yl)-2-oxoethyl]-6-(2-methoxy-5-methylphenyl)-1,2,3,4-tetrahydroisoquinoline]
CC(C)N1CCN(C(=O)CN2CCc3cc(-c4ccc(Oc5ccccc5)cc4)ccc3C2)CC1 [Compound 489, 2-[2-(4-isopropylpiperazin-1-yl)-2-oxoethyl]-6-(4-phenoxyphenyl)-1,2,3,4-tetrahydroisoquinoline]
COc1ccc(-c2ccc3c(c2)CCN(CC(=O)N2CCN(C(C)C)CC2)C3)cc1F [Compound 505, 6-(3-fluoro-4-methoxyphenyl)-2-[2-(4-isopropylpiperazin-1-yl)-2-oxoethyl]-1,2,3,4-tetrahydroisoquinoline]
COc1ccc(C(C)C)cc1-c1ccc2c(c1)CCN(CC(=O)N1CCN(C3CCC3)CC1)C2 [Compound 554, 2-[2-(4-cyclobutylpiperazin-1-yl)-2-oxoethyl]-6-(5-isopropyl-2-methoxyphenyl)-1,2,3,4-tetrahydroisoquinoline]
CCC(C)N1CCN(C(=O)CN2CCc3cc(-c4cncnc4)ccc3C2)C[C@H]1C (stereo partly drawn) [Compound 606, 2-{2-[(3R)-4-sec-butyl-3-methylpiperazin-1-yl]-2-oxoethyl}-6-pyrimidin-5-yl-1,2,3,4-tetrahydroisoquinoline]
COc1ccc(Cl)cc1-c1ccc2c(c1)CCN(CC(=O)N1CCN(C3CCC3)CC1)C2 [Compound 557, 6-(5-chloro-2-methoxyphenyl)-2-[2-(4-cyclobutylpiperazin-1-yl)-2-oxoethyl]-1,2,3,4-tetrahydroisoquinoline]
O=C(CN1CCc2cc(-c3ccc(Cl)c(F)c3)ccc2C1)N1CCN(C2CCCCC2)CC1 [Compound 593, 6-(4-chloro-3-fluorophenyl)-2-[2-(4-cyclohexylpiperazin-1-yl)-2-oxoethyl]-1,2,3,4-tetrahydroisoquinoline]
COc1ccc(C)cc1-c1ccc2c(c1)CCN(CC(=O)N1CCN(C3CCCC3)CC1)C2 [Compound 573, 2-[2-(4-cyclopentylpiperazin-1-yl)-2-oxoethyl]-6-(2-methoxy-5-methylphenyl)-1,2,3,4-tetrahydroisoquinoline]
O=C(CN1CCc2cc(-c3ccc(F)c(Cl)c3)ccc2C1)N1CCN(C2CCCC2)CC1 [Compound 580, 6-(3-chloro-4-fluorophenyl)-2-[2-(4-cyclopentylpiperazin-1-yl)-2-oxoethyl]-1,2,3,4-tetrahydroisoquinoline]
O=C(CN1CCc2cc(-c3cncnc3)ccc2C1)N1C[C@@H]2C[C@H]1CN2C1CCCCC1 (stereo in doubt) [Compound 618, 2-{2-[(1S,4S)-5-cyclohexyl-2,5-diazabicyclo[2.2.1]hept-2-yl]-2-oxoethyl}-6-pyrimidin-5-yl-1,2,3,4-tetrahydroisoquinoline]
COc1ccc(C(C)C)cc1-c1ccc2c(c1)CCN(CC(=O)N1CCN(C3CCCCC3)CC1)C2 [Compound 556, 2-[2-(4-cyclohexylpiperazin-1-yl)-2-oxoethyl]-6-(5-isopropyl-2-methoxyphenyl)-1,2,3,4-tetrahydroisoquinoline]
CC(C)N1CCN(C(=O)CN2CCc3cc(-c4cccc(OC(F)(F)F)c4)ccc3C2)CC1 [Compound 493, 2-[2-(4-isopropylpiperazin-1-yl)-2-oxoethyl]-6-[3-(trifluoromethoxy)phenyl]-1,2,3,4-tetrahydroisoquinoline]
COc1ccc(-c2ccc3c(c2)CCN(CC(=O)N2CCN(C4CCCCC4)CC2)C3)c(C)c1 [Compound 550, 2-[2-(4-cyclohexylpiperazin-1-yl)-2-oxoethyl]-6-(4-methoxy-2-methylphenyl)-1,2,3,4-tetrahydroisoquinoline]
COc1cc(F)c(-c2ccc3c(c2)CCN(CC(=O)N2CCN(C(C)C)CC2)C3)cc1F [Compound 508, 6-(2,5-difluoro-4-methoxyphenyl)-2-[2-(4-isopropylpiperazin-1-yl)-2-oxoethyl]-1,2,3,4-tetrahydroisoquinoline]
CC(C1CC1)N1CCN(C(=O)CN2CCc3cc(-c4cncnc4)ccc3C2)CC1 (stereo not drawn) [Compound 609, 2-{2-[4-(1-cyclopropylethyl)piperazin-1-yl]-2-oxoethyl}-6-pyrimidin-5-yl-1,2,3,4-tetrahydroisoquinoline]
COCC(C)Nc1ccc2c(n1)CCN(CC(=O)N1CCN(C3CCC3)CC1)C2 (stereo not drawn) [Compound 665, 6-[2-(4-cyclobutylpiperazin-1-yl)-2-oxoethyl]-N-(2-methoxy-1-methylethyl)-5,6,7,8-tetrahydro-1,6-naphthyridin-2-amine]
COc1ccccc1-c1ccc2c(c1)CCN(CC(=O)N1CCN(C3CCCC3)CC1)C2 [Compound 552, 2-[2-(4-cyclopentylpiperazin-1-yl)-2-oxoethyl]-6-(2-methoxyphenyl)-1,2,3,4-tetrahydroisoquinoline]
